Test [1] concerns the target T1, Agt1 (AGT1 from ale strain A60) (Saccharomyces cerevisiae, UniProt P53048).
T1 sequence (P53048 1-616): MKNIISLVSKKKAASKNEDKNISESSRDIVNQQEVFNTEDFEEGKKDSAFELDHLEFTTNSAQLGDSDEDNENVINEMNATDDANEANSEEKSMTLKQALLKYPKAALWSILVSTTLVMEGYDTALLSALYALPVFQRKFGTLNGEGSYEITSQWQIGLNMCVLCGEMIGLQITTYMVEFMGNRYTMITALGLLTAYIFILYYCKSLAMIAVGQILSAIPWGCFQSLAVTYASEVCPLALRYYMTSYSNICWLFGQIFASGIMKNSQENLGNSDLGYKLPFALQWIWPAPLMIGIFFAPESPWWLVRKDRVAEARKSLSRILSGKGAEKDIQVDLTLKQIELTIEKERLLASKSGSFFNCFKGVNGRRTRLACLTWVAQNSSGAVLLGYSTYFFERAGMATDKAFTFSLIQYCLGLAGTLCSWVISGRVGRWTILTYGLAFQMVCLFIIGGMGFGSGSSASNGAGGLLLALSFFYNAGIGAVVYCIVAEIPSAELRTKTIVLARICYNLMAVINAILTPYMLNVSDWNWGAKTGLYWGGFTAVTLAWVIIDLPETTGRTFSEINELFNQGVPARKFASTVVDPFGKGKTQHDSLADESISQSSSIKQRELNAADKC
Put plainly: inhibition of […]-maltose uptake into intact yeast transformants. The class given is cell-based.

Test [2] addresses T2, Agt1 (AGT1 from ale strain A179) (Saccharomyces cerevisiae, UniProt P53048).
T2 sequence (P53048 1-616): T1 sequence (P53048 1-616)
The test is described as above. The class given is cell-based.

[3] abbreviates: read-out: % inhibition at 50 mM.
[4] abbreviates: read-out: % inhibition at 75 mM.

With `OC[C@H]1O[C@H](O[C@H]2[C@H](O)[C@@H](O)[C@@H](O[C@H]3[C@H](O)[C@@H](O)C(O)O[C@@H]3CO)O[C@@H]2CO)[C@H](O)[C@@H](O)[C@@H]1O` (stereo partly shown) [maltotriose], the inhibition at 50000 µM in test [1] (setting [3]) was found to be 85%; in test [2] (setting [3]), 79%.

Consider `OC[C@H]1O[C@H](O[C@H]2O[C@H](CO)[C@@H](O)[C@H](O)[C@H]2O)[C@H](O)[C@@H](O)[C@@H]1O` [trehalose], for which the inhibition at 75000 µM in test [1] (setting [4]) was 94%; in test [2] (setting [4]), 85%.

The inhibition is the drop in the measured response relative to a control, in per cent.

Values taken from article PMC2878602 (Fems Yeast Research, 2010).
